Measured values reported in patent EP1356819A1, “Use of proteasome/ubiquitination inhibitors and/or MMP inhibitors alone or in combination with a growth hormone for treating /preventing catabolic conditions” (Universitair Medisch Centrum Utrecht, priority 2002, dated 2003).
Like-named read-outs stand apart in the source and are kept apart here. Where a SMILES comes first, the peptide text is derived from it. The star is where a group is joined. Cbz = O=C(OCc1ccccc1)*

Tests used:
[1] = system: GH binding protein (GHBP); assay: Release of GH binding protein into the growth medium, Western blotting with Mab5 antibody; type: cell-based, rabbit; conditions: 1 µM; growth medium after 150 min at 30°C (Fig. 3)
Procedure: Cell lines and plasmids. Chinese hamster lung cells, ts20, bearing a thermolabile ubiquitin-activating enzyme E1, and E36 control cells were stably transfected with a pCB6 construct containing the full length rabbit GHR cDNA sequence. The newly established cell lines were grown at 30°C in MEMα supplemented with 10% FCS, 4.5 g/l glucose, 100 U/ml penicillin, 100 µg/ml streptomycin and 0.45 mg/ml geneticin (van Kerkhof et al., 2002). Sixteen hours before the start of the experiment, 10 mM butyrate was added to increase the expression of the GHR (van Kerkhof et al., 2002).
Cell lysis, immunoprecipitation, and western blotting. […] Cell lysates were subjected to SDS-polyacrylamide gel electrophoresis using a precast ready gel system (BioRad, Veenendaal, The Netherlands) and transferred to polyvinylidenedifluoride (PVDF) paper. The blots were immunostained using the polyclonal GHR antibodies anti-T or anti-B or the monoclonal antibody mAb5 followed by peroxidase conjugated protein A or rabbit anti-mouse IgG (Pierce Chemical Co.) as described previously (van Kerkhof et al. 2002), and detected by enhanced chemiluminescence (Roche Molecular Biochemicals).
• Fig. 1. […] Quantification of receptors at the cell surface. […] The number GHRs were calculated and expressed as a percentage of untreated cells. • Fig. 3. […]

[2] = system: GHR; assay: Western blotting of GHR species (mature and precursor) in cell lysates after drug treatment; type: cell-based, rabbit
Procedure: Cell lines and plasmids. Chinese hamster lung cells, ts20, bearing a thermolabile ubiquitin-activating enzyme E1, and E36 control cells were stably transfected with a pCB6 construct containing the full length rabbit GHR cDNA sequence.
Antibodies and materials. […] Inhibitors were dissolved in dimethylsulfoxide (DMSO).
Cell lysis, immunoprecipitation, and western blotting. Cells (in 6-cm dishes) were lysed on ice in 1.0 mL of lysis buffer containing 1% Triton X-100, 1 mM EDTA in PBS, with 50 mM NaF, 1 mM Na3VO4, 10 µg/ml aprotinin, 10 µg/ml leupeptin, and 1 mM PMSF. Cell lysates were subjected to SDS-polyacrylamide gel electrophoresis using a precast ready gel system (BioRad, Veenendaal, The Netherlands) and transferred to polyvinylidenedifluoride (PVDF) paper.
• Fig. 1. Effect of various drugs on GHR species. Cells were treated for 3 h as follows: lane 1, vehicle; lane 2, MG132 (10 µM); lane 3, Tapi-I (10 µM); lane 4, MG132 (10 µM) and Tapi-I (10 µM); lane 5, cycloheximide (0.1 mM); m, mature; p, precursor GHR. […] Quantification of receptors at the cell surface. […] The number GHRs were calculated and expressed as a percentage of untreated cells. • Fig. 3. Effect of metalloprotease inhibitors on the release of GH binding protein.

[3] = Chinese hamster lung cells transfected with rabbit GHR, treated for 3 h, MG132 10 µM, Tapi-I 10 µM, cycloheximide 0.1 mM, compared with vehicle control (Fig. 1)

| SMILES | inhibition of shedding of GHBP [1] | amount of precursor GHR [2, 3] | steady state amount of mature GHR [2, 3] | amount of precursor GHR [2] | steady state amount of mature GHR [2] |
| --- | --- | --- | --- | --- | --- |
| CNC(=O)[C@H](Cc1c[nH]c2ccccc12)NC(=O)[C@@H](CC(=O)NO)CC(C)C [GM6001] | almost completely inhibited |  |  |  |  |
| CC(C)C[C@H](CC(=O)NO)C(=O)N[C@@H](Cc1ccc2ccccc2c1)C(=O)N[C@@H](C)C(=O)NCCN [Tapi-I] | almost completely inhibited | unchanged | slight increase |  |  |
| C[C@@H]1C[C@@H]([C@H](O)CC2CC(=O)NC(=O)C2)C(=O)[C@@H](C)C1 [cycloheximide] |  |  |  | virtually disappeared | virtually disappeared |
| CC(C)C[C@@H](C=O)NC(=O)[C@H](CC(C)C)NC(=O)[C@H](CC(C)C)NC(=O)OCc1ccccc1 [MG132, carbobenzoxy-L-leucyl-L-leucyl-L-leucinal] (Cbz-Leu-Leu-Leu-aldehyde) |  | remained constant | decreased |  |  |
